# Test results published in US9868758B2, “Betulinic proline imidazole derivatives as HIV inhibitors” (HETERO LABS LIMITED, priority 2014, dated 2018).
# Where two headings read alike, the source gives them in different places.
# Experiments:
# [1] = Single dose oral pharmacokinetic study; design: species or system mice; conditions: mouse, in vivo
# Description: The test item was administered through oral route to animals (rat/mice) at 30 mg/kg dose in a suitable vehicle at 10 ml/kg dose volume. Blood samples (˜50 uL at each time point) were collected from retro-orbital plexus using K3 EDTA as anticoagulant in eppendorf tubes at defined time intervals under light ether anesthesia. The samples were centrifuged at 3500×g to separate plasma and stored at −80° C. until analysis.
# Sample analysis: Test samples were analyzed using LC-MS-MS after developing fit-for-purpose method for each of test compound.
# [2] = test system: HIV-1 strains, for e.g., 92HT599; experiment: Antiviral activity: p24 estimation in HIV-1 infected MT-2 cells; assay type: cell-based
# Description: MT-2 cells were infected with required number of TCID50's of HIV-1 strains, for e.g., 92HT599. The infected cells were plated at the concentration of 30,000 cells per well in a 96 well plate. Test compound was added to the 96 well plate with the final concentration of DMSO (vehicle—not more than 1%). The plates are then incubated in a CO2 incubator for ˜96 hours (˜4 days) for viral infection. At the end of incubation period an aliquot from each well was taken for p24 estimation. The quantitation of p24 is an estimated index for antiviral activity of the compound. Percent inhibition was calculated with reference to control values (vehicle controls).
# p-24 estimation was carried out using Advance biosciences kit as per the procedure detailed by supplier.
# [3] = Human immunodeficiency virus 1, MT2, MT-2 cells, p24, read-out: Antiviral activity IC50
# [4] = Mice oral PK @30 mg/kg, plasma, read-out: AUC 0-t
# [5] = Mice oral PK @30 mg/kg, plasma, read-out: Cmax
# [6] = Human immunodeficiency virus 1, MT2, read-out: Antiviral activity IC50 (nM)
SMILES,"AUC(0-t) ([1]; po, 30 mg/kg)","Cmax ([1]; po, 30 mg/kg)","IC50 [2, 3]","AUC(0-t) [1, 4]","Cmax [1, 5]","IC50 [2, 6]"
"C=C(C)[C@@H]1CC[C@]2(C(=O)N3CCC[C@H]3c3nc(-c4ccccc4)cn3CCOC)CC[C@]3(C)[C@H](CC[C@@H]4[C@@]5(C)CC[C@H](OC(=O)CC(C)(C)C(=O)O)C(C)(C)[C@@H]5CC[C@]43C)[C@@H]12 [Compound 17, 4-(((1R,3aS,5aR,5bR,7aR,9S,11aR,11bR,13aR,13bR)-3a-((S)-2-(1-(2-methoxyethyl)-4-phenyl-1H-imidazol-2-yl)pyrrolidine-1-carbonyl)-5a,5b,8,8,11a-pentamethyl-1-(prop-1-en-2-yl)icosahydro-1H-cyclopenta[a]chrysen-9-yl)oxy)-2,2-dimethyl-4-oxobutanoic acid]",271 µg·h/mL,13000 ng/mL,0.3 nM,–,–,–
"CN(C)CCn1cc(-c2cccnc2)nc1[C@@H]1CCCN1C(=O)[C@]12CC[C@@H](C3(C)CC3)[C@@H]1[C@H]1CC[C@@H]3[C@@]4(C)CC[C@H](OC(=O)[C@H]5C[C@@H](C(=O)O)C5(C)C)C(C)(C)[C@@H]4CC[C@@]3(C)[C@]1(C)CC2 [Compound 19, (1R,3S)-3-((((1R,3aS,5aR,5bR,7aR,9S,11aR,11bR,13aR,13bR)-3a-((S)-2-(1-(2-(dimethylamino)ethyl)-4-(pyridin-3-yl)-1H-imidazol-2-yl)pyrrolidine-1-carbonyl)-5a,5b,8,8,11a-pentamethyl-1-(1-methylcyclopropyl)icosahydro-1H-cyclopenta[a]chrysen-9-yl)oxy)carbonyl)-2,2-dimethylcyclobutane-1-carboxylic acid]",97.4 µg·h/mL,4260 ng/mL,7.76 nM,–,–,–
"C=C(C)[C@@H]1CC[C@]2(C(=O)N3CCC[C@H]3c3nc(-c4ccncc4)cn3CCN3CCCC3)CC[C@]3(C)[C@H](CC[C@@H]4[C@@]5(C)CC[C@H](OC(=O)[C@H]6C[C@@H](C(=O)O)C6(C)C)C(C)(C)[C@@H]5CC[C@]43C)[C@@H]12 [Compound 9, (1R,3S)-2,2-dimethyl-3-((((1R,3aS,5aR,5bR,7aR,9S,11aR,11bR,13aR,13bR)-5a,5b,8,8,11a-pentamethyl-1-(prop-1-en-2-yl)-3a-((S)-2-(4-(pyridin-4-yl)-1-(2-(pyrrolidin-1-yl)ethyl)-1H-imidazol-2-yl)pyrrolidine-1-carbonyl)icosahydro-1H-cyclopenta[a]chrysen-9-yl)oxy)carbonyl) cyclobutane-1-carboxylic acid]",260 µg·h/mL,6900 ng/mL,10.6 nM,–,–,–
"C=C(C)[C@@H]1CC[C@]2(C(=O)N3CCC[C@H]3c3nc(C(C)(C)C)cn3CCN(C)C)CC[C@]3(C)[C@H](CC[C@@H]4[C@@]5(C)CC[C@H](OC(=O)[C@H]6C[C@@H](C(=O)O)C6(C)C)C(C)(C)[C@@H]5CC[C@]43C)[C@@H]12 [Compound 11, (1R,3S)-3-((((1R,3aS,5aR,5bR,7aR,9S,11aR,11bR,13aR,13bR)-3a-((S)-2-(4-(tert-butyl)-1-(2-(dimethylamino)ethyl)-1H-imidazol-2-yl)pyrrolidine-1-carbonyl)-5a,5b,8,8,11a-pentamethyl-1-(prop-1-en-2-yl)icosahydro-1H-cyclopenta[a]chrysen-9-yl)oxy)carbonyl)-2,2-dimethyl cyclobutane-1-carboxylic acid]",755 µg·h/mL,18100 ng/mL,3.58 nM,–,–,–
"C=C(C)[C@@H]1CC[C@]2(C(=O)N3CCC[C@H]3c3nc(-c4ccccc4)cn3CCN(C)C)CC[C@]3(C)[C@H](CC[C@@H]4[C@@]5(C)CC[C@H](OC(=O)CC(C)(C)C(=O)O)C(C)(C)[C@@H]5CC[C@]43C)[C@@H]12 [Compound 16, 4-(((1R,3aS,5aR,5bR,7aR,9S,11aR,11bR,13aR,13bR)-3a-((S)-2-(1-(2-(dimethylamino)ethyl)-4-phenyl-1H-imidazol-2-yl)pyrrolidine-1-carbonyl)-5a,5b,8,8,11a-pentamethyl-1-(prop-1-en-2-yl)icosahydro-1H-cyclopenta[a]chrysen-9-yl)oxy)-2,2-dimethyl-4-oxo butanoic acid]",294 µg·h/mL,9030 ng/mL,8.48 nM,–,–,–
"C=C(C)[C@@H]1CC[C@]2(C(=O)N3CCC[C@H]3c3nc(-c4ccccc4)cn3C)CC[C@]3(C)[C@H](CC[C@@H]4[C@@]5(C)CC[C@H](OC(=O)CC(C)(C)C(=O)O)C(C)(C)[C@@H]5CC[C@]43C)[C@@H]12 [Compound 15, 2,2-dimethyl-4-oxo-4-(((1R,3aS,5aR,5bR,7aR,9S,11aR,11bR,13aR,13bR)-5a,5b,8,8,11a-pentamethyl-3a-((S)-2-(1-methyl-4-phenyl-1H-imidazol-2-yl)pyrrolidine-1-carbonyl)-1-(prop-1-en-2-yl)icosahydro-1H-cyclopenta[a]chrysen-9-yl)oxy)butanoic acid]",376 µg·h/mL,15300 ng/mL,7.42 nM,–,–,–
"C=C(C)[C@@H]1CC[C@]2(C(=O)N3CCC[C@H]3c3nc(-c4ccccc4)cn3CCP(=O)(OCC)OCC)CC[C@]3(C)[C@H](CC[C@@H]4[C@@]5(C)CC[C@H](OC(=O)[C@H]6C[C@@H](C(=O)O)C6(C)C)C(C)(C)[C@@H]5CC[C@]43C)[C@@H]12 [Compound 22, (1R,3S)-3-((((1R,3aS,5aR,5bR,7aR,9S,11aR,11bR,13aR,13bR)-3a-((S)-2-(1-(2-(diethoxyphosphoryl)ethyl)-4-phenyl-1H-imidazol-2-yl)pyrrolidine-1-carbonyl)-5a,5b,8,8,11a-pentamethyl-1-(prop-1-en-2-yl)icosahydro-1H-cyclopenta[a]chrysen-9-yl)oxy)carbonyl)-2,2-dimethyl cyclobutane-1-carboxylic acid]",–,–,–,215 µg·h/mL,5830 ng/mL,14.9 nM
"C=C(C)[C@@H]1CC[C@]2(C(=O)N3CCC[C@H]3c3nc(-c4ccc(F)cc4)cn3CCP(=O)(OCC)OCC)CC[C@]3(C)[C@H](CC[C@@H]4[C@@]5(C)CC[C@H](OC(=O)[C@H]6C[C@@H](C(=O)O)C6(C)C)C(C)(C)[C@@H]5CC[C@]43C)[C@@H]12 [Compound 24, (1R,3S)-3-((((1R,3aS,5aR,5bR,7aR,9S,11aR,11bR,13aR,13bR)-3a-((S)-2-(1-(2-(diethoxyphosphoryl)ethyl)-4-(4-fluorophenyl)-1H-imidazol-2-yl)pyrrolidine-1-carbonyl)-5a,5b,8,8,11a-pentamethyl-1-(prop-1-en-2-yl)icosahydro-1H-cyclopenta[a]chrysen-9-yl)oxy)carbonyl)-2,2-dimethylcyclobutane-1-carboxylic acid]",–,–,–,89.4 µg·h/mL,2550 ng/mL,0.972 nM
